Legend:
[1] = target: T1, SOS1 catalytic domain (residues 564-1049) (Homo sapiens, UniProt Q07889); test: Potency Assay: binding affinity to SOS1 using Surface Plasmon Resonance (SPR); design: SOS1 catalytic domain (residues 564-1049) immobilized on a sensor chip; details: immobilized SOS1 catalytic domain (residues 564-1049), read-out: SOS1 SPR Equilibrium Kd
T1 sequence (Q07889 564-1049): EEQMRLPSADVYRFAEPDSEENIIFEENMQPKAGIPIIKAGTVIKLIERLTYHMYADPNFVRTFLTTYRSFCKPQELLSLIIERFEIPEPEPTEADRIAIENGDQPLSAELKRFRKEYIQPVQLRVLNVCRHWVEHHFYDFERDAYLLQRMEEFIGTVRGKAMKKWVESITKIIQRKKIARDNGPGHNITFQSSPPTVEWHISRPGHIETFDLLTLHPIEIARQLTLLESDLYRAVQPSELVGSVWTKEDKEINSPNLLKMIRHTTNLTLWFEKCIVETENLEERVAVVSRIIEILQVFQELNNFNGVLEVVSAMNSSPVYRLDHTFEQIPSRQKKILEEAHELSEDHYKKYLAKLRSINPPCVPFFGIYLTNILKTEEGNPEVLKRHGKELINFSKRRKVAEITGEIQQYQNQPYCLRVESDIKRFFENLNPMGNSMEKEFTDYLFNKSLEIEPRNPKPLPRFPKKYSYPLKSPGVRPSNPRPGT
Description: Data was reported as equilibrium dissociation constant (Kd) values.
Using a GE Biacore 8K SPR instrument, avi-tagged SOS1 catalytic domain protein was immobilized to a level of approximately 6000 response units (RU) on a streptavidin-coated SPR sensor chip in assay buffer containing 0.01 M HEPES, 0.15 M NaCl and 0.05% v/v Surfactant P20. […] For each test compound, a separate 0 μM sample was generated for use during subsequent double reference subtraction. Serially for each test compound, individual dilution samples were flowed over the immobilized SOS1 protein at a flow rate of 50 μL/minute to monitor the association with SOS1. Dissociation of bound test compound from the SOS1 protein was immediately monitored by flowing assay buffer over the sensor surface and monitoring the decrease in binding signal back to the baseline level seen in the absence of compound. This was repeated for all compound dilutions in each series. The binding level response for each test compound concentration was noted immediately prior to the end of the association phase, and a secondary plot generated showing binding response level versus test compound concentration generated for each compound dilution series.

[2] = target: T1, SOS1 catalytic domain (residues 564-1049); test: Mode of Action Assay: inhibition of SOS1 nucleotide exchange activity (SOS1 TR-FRET IC50 Assay)

| Kd [1] | IC50 [2] | Compound |
| --- | --- | --- |
| > 400 nM | > 1000 nM | C[C@@H](Nc1nc(Cl)nc2c1CN(C(=O)c1ncc[nH]1)C2)c1cc(N)cc(C(F)(F)F)c1 [Example 95] |
| < 400 nM | > 1000 nM | C[C@@H](Nc1nc(Cl)nc2c1CN(C(=O)c1cnn(C3CCOCC3)c1)C2)c1cc(N)cc(C(F)(F)F)c1 [Example 96] |
| > 400 nM | < 1000 nM | C[C@@H](Nc1nc(Cl)nc2c1CN(C(=O)[C@H]1CC[C@@H](O)CC1)C2)c1cc(N)cc(C(F)(F)F)c1 [Example 99] |
| < 400 nM | < 1000 nM | C[C@@H](Nc1nc(Cl)nc2c1CN(C(=O)C1CN(C)C1)C2)c1cc(N)cc(C(F)(F)F)c1 [Example 100] |
| < 400 nM | > 1000 nM | Cc1cn2nnc(C(=O)N3Cc4nc(Cl)nc(N[C@H](C)c5cc(N)cc(C(F)(F)F)c5)c4C3)c2c(=O)[nH]1 [Example 103] |
| < 400 nM | < 1000 nM | C[C@@H](Nc1nc(Cl)nc2c1CN(C(=O)C1CCOCC1)C2)c1cc(N)cc(C(F)(F)F)c1 [Example 116, N-[(1R)-1-[3-amino-5-(trifluoromethyl)phenyl]ethyl]-2-chloro-6-(oxane-4-carbonyl)-5H,6H,7H-pyrrolo[3,4-d]pyrimidin-4-amine] |
| > 400 nM | > 1000 nM | CNC(=O)N1Cc2nc(C)nc(N[C@H](C)c3cc(N)cc(C(F)(F)F)c3)c2C1 [Example 122, 4-{[(1R)-1-[3-amino-5-(trifluoromethyl)phenyl]ethyl]amino}-N,2-dimethyl-5H,6H,7H-pyrrolo[3,4-d]pyrimidine-6-carboxamide] |
| < 400 nM | < 1000 nM | CCOc1nc2c(c(N[C@H](C)c3cc(N)cc(C(F)(F)F)c3)n1)CN(C(=O)N1CCOCC1)C2 [Example 124, N-[(1R)-1-[3-amino-5-(trifluoromethyl)phenyl]ethyl]-2-ethoxy-6-(morpholine-4-carbonyl)-5H,6H,7H-pyrrolo[3,4-d]pyrimidin-4-amine] |
| < 400 nM | > 1000 nM | C[C@@H](Nc1nc(C(F)(F)F)nc2c1CN(C(=O)N1CCOCC1)C2)c1cc(N)cc(C(F)(F)F)c1 [Example 127, N-[(1R)-1-[3-amino-5-(trifluoromethyl)phenyl]ethyl]-6-(morpholine-4-carbonyl)-2-(trifluoromethyl)-5H,6H,7H-pyrrolo[3,4-d]pyrimidin-4-amine] |
| > 400 nM | > 1000 nM | C[C@@H](Nc1nc(OC2COC2)nc2c1CN(C(=O)N1CCOCC1)C2)c1cc(N)cc(C(F)(F)F)c1 [Example 133, N-[(1R)-1-[3-amino-5-(trifluoro-methyl)phenyl]ethyl]-6-(morpholine-4-carbonyl)-2-(oxetan-3-yl-oxy)-5H,6H,7H-pyrrolo[3,4-d]pyrimidin-4-amine] |
| > 400 nM | > 1000 nM | Cc1nc2c(c(N[C@H](C)c3cc(N)cc(C(F)(F)F)c3)n1)CN(C(=O)N1CCOCC1)CCC2 [Example 136, N-[(1R)-1-[3-amino-5-(trifluoromethyl)phenyl]ethyl]-2-methyl-6-(morpholine-4-carbonyl)-5H,6H,-7H,8H,9H-pyrimido[5,4-c]azepin-4-amine] |
| < 400 nM | < 1000 nM | C[C@@H](Nc1nc(Cl)nc2c1CN(C(=O)N1CCCC13CCOCC3)C2)c1cc(N)cc(C(F)(F)F)c1 [Example 139] |
| < 400 nM | < 1000 nM | C[C@@H](Nc1nc(Cl)nc2c1CN(C(=O)N1CCOc3ccncc31)C2)c1cc(N)cc(C(F)(F)F)c1 [Example 141] |
| < 400 nM | < 1000 nM | C[C@@H]1CN(C(=O)N2Cc3nc(Cl)nc(N[C@H](C)c4cc(N)cc(C(F)(F)F)c4)c3C2)C[C@@H](C)N1 [Example 143] |
| < 400 nM | > 1000 nM | C[C@@H](Nc1nc(Cl)nc2c1CN(C(=O)N1CCc3ncccc3C1)C2)c1cc(N)cc(C(F)(F)F)c1 [Example 147] |
| > 400 nM | < 1000 nM | C[C@@H](Nc1nc(Cl)nc2c1CN(C(=O)NC1CC[C@H](N)C1)C2)c1cc(N)cc(C(F)(F)F)c1 (some centres unmarked) [Example 150] |
| < 400 nM | < 1000 nM | COC[C@H]1CCCN1C(=O)N1Cc2nc(Cl)nc(N[C@H](C)c3cc(N)cc(C(F)(F)F)c3)c2C1 [Example 154] |
| < 400 nM | < 1000 nM | C[C@@H](Nc1nc(Cl)nc2c1CN(C(=O)N1CCC3(CC1)COC3)C2)c1cc(N)cc(C(F)(F)F)c1 [Example 159] |
| < 400 nM | < 1000 nM | C[C@@H](Nc1nc(Cl)nc2c1CN(C(=O)N1CCC(C)(O)CC1)C2)c1cc(N)cc(C(F)(F)F)c1 [Example 162] |
| < 400 nM | < 1000 nM | C[C@@H]1CN(C(=O)N2Cc3nc(Cl)nc(N[C@H](C)c4cc(N)cc(C(F)(F)F)c4)c3C2)C[C@H](C)O1 [Example 163] |

| Kd [1] | IC50 [2] | Compound |
| --- | --- | --- |
| < 400 nM | < 1000 nM | COc1ccc(C(=O)N2Cc3nc(Cl)nc(N[C@H](C)c4cc(N)cc(C(F)(F)F)c4)c3C2)cc1OC [Example 172] |
| > 400 nM | > 1000 nM | C[C@@H](Nc1nc(Cl)nc2c1CN(S(=O)(=O)c1cn[nH]c1)C2)c1cc(N)cc(C(F)(F)F)c1 [Example 173] |
| > 400 nM | > 1000 nM | O=C(N1CCOCC1)N1Cc2nc(Cl)nc(N[C@H](CO)c3cccc(C(F)(F)F)c3)c2C1 [Example 174] |
| > 400 nM | > 1000 nM | C[C@@H](Nc1nc(Cl)nc2c1CN(C(=O)c1cc3c(cn1)OCCO3)C2)c1cc(N)cc(C(F)(F)F)c1 [Example 175] |
| < 400 nM | < 1000 nM | C[C@@H](Nc1nc(Cl)nc2c1CN(S(=O)(=O)N1CCOCC1)C2)c1cccc(C(F)(F)CO)c1 [Example 178] |
| < 400 nM | < 1000 nM | C[C@@H](Nc1nc(Cl)nc2c1CN(S(=O)(=O)N1CCCC1)CC2)c1cc(N)cc(C(F)(F)F)c1 [Example 182] |
| < 400 nM | < 1000 nM | COC1(C(=O)N2Cc3nc(Cl)nc(N[C@H](C)c4cccc(C(F)F)c4F)c3C2)CCN(C(C)=O)CC1 [Example 345] |
| < 400 nM | < 1000 nM | CC(=O)N1CC(C)(C(=O)N2Cc3nc(Cl)nc(N[C@H](C)c4cccc(C(F)F)c4F)c3C2)C1 [Example 346] |
| < 400 nM | < 1000 nM | CC(=O)N1CC(F)(C(=O)N2Cc3nc(Cl)nc(N[C@H](C)c4cccc(C(F)F)c4F)c3C2)C1 [Example 347] |
| < 400 nM | < 1000 nM | C[C@@H](Nc1nc(Cl)nc2c1CN(C(=O)N1CCNCC1C(F)(F)F)C2)c1cc(N)cc(C(F)(F)F)c1 (some centres unmarked) [Example 358] |
| < 400 nM | < 1000 nM | C[C@@H](Nc1nc(Cl)nc2c1CN(C(=O)N1CCNC(=O)C1)C2)c1cc(N)cc(C(F)(F)F)c1 [Example 367] |
| < 400 nM | < 1000 nM | C[C@@H](Nc1nc(Cl)nc2c1CN(C(=O)N1CCc3cccnc31)C2)c1cccc(C(F)(F)F)c1 [Example 369] |
| < 400 nM | < 1000 nM | C[C@@H](Nc1nc(Cl)nc2c1CN(C(=O)N1CCNc3ncccc31)C2)c1cccc(C(F)F)c1F [Example 425] |
| > 400 nM | < 1000 nM | C[C@@H](Nc1nc(Cl)nc2c1CN(C(=O)N1CCN(C)c3ncccc31)C2)c1cccc(C(F)F)c1F [Example 426] |
| < 400 nM | < 1000 nM | C[C@@H](Nc1nc(Cl)nc2c1CN(C(=O)N1CCNc3ncncc31)C2)c1cccc(C(F)F)c1F [Example 427] |
| < 400 nM | < 1000 nM | C[C@@H](Nc1nc(Cl)nc2c1CN(C(=O)N1CCN(C)c3ncncc31)C2)c1cccc(C(F)F)c1F [Example 428] |
| < 400 nM | < 1000 nM | COC1CN([C@@H]2CCc3nc(Cl)nc(N[C@H](C)c4cc(N)cc(C(F)(F)F)c4)c3C2)C1 [Example 431] |
| < 400 nM | < 1000 nM | COC1CN([C@H]2CCc3nc(Cl)nc(N[C@H](C)c4cc(N)cc(C(F)(F)F)c4)c3C2)C1 [Example 432] |
| < 400 nM | < 1000 nM | CC(Nc1nc(Cl)nc2c1CN(C(=O)N1CCOCC1)C2)c1cc(N)cc(C(F)(F)F)c1F (centres unmarked) [Example 461, (4-((1-(5-amino-2-fluoro-3-(trifluoromethyl)phenyl)ethyl)amino)-2-chloro-5,7-dihydro-6H-pyrrolo[3,4-d]pyrimidin-6-yl)(morpholino)methanone] |
| < 400 nM | < 1000 nM | COC1(C(=O)N2Cc3nc(C(F)(F)CO)nc(N[C@H](C)c4cccc(C(F)F)c4F)c3C2)CCOCC1 [Example 487, (R)-(2-(1,1-difluoro-2-hydroxyethyl)-4-((1-(3-(difluoromethyl)-2-fluorophenyl)ethyl)amino)-5,7-dihydro-6H-pyrrolo[3,4-d]pyrimidin-6-yl)(4-methoxytetrahydro-2H-pyran-4-yl)methanone] |
